Assay [1] deals with human factor VIIa (Homo sapiens, UniProt P08709). The assay is described as follows: biochemical. The method, then:
1. Assay for FVIIa-inhibiting Activity
A 10 vol % DMSO solution of a test compound (20 μL) was mixed with 40 μL Thromborel®S (50 mg/mL, Dade Behring, GTS-200A), 20 μL Spectrozyme®fVIIa (5 mmol/L, American Diagnostica Inc., #217L), 20 μL Tris buffer (500 mmol/L Tris/HCl, pH 7.5, 1500 mmol/L NaCl, 50 mmol/L CaCl2) and 80 μL distilled water, followed by stirring. […] The initial reaction velocity was set to 100% in the case of adding 10 vol % DMSO alone, instead of a test compound. […] This concentration was defined as an IC50 value.

Assay [2] concerns the target T1, human thrombin (Homo sapiens, UniProt P00734).
T1 construct: addition of 20 μ2L human thrombin (5 U/mL, SIGMA, T 1063); purchased SIGMA T 1063
The assay is described as follows: Assay for thrombin-inhibiting activity (chromogenic substrate FVR-pNa). The following applies: for Thrombin selectivity: ratio IC50 Thrombin / IC50 Factor VIIa. The format is biochemical.

Where [3] appears, read: 50% inhibition of initial reaction velocity, room temperature, absorbance at 405 nm, read-out: IC50 Thrombin.

The values that follow come from patent US7001887B2, “Peptide derivatives” (priority 2001, dated 2006).

The structures appear in SMILES notation. Where two headings read alike, the source gives them in different places.

human factor VIIa, sequence (P08709 213-466 limits assumed): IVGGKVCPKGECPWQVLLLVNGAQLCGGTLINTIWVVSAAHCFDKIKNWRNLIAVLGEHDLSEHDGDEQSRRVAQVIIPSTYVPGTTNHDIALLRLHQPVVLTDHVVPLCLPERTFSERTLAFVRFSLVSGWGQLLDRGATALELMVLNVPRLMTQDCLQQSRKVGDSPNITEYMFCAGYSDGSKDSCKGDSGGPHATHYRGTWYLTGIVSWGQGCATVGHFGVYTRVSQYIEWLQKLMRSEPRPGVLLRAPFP
human factor VIIa, sequence (P08709 61-212 limits assumed): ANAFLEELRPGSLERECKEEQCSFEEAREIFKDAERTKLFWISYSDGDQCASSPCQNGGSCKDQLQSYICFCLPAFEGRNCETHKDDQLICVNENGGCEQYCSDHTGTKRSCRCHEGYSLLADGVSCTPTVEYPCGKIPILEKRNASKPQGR
human factor VIIa, sequence (P13726 33-295 partner): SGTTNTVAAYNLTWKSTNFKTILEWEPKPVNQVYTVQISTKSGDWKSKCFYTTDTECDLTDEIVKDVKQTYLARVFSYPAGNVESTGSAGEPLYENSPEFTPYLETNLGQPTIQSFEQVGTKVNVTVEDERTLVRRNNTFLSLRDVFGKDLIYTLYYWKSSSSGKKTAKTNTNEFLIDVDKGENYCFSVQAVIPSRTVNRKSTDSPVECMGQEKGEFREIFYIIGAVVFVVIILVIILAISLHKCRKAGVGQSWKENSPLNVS

With `CCS(=O)(=O)N[C@H](Cc1c[nH]c2ccc(OCc3ccccc3)cc12)C(=O)N[C@@H](CCC(N)=O)C(=O)NCc1ccc(C(=N)N)cc1` [Example 170], the IC50 (as a rule, the concentration that inhibits the measured activity by half) amounted to 37 nM in assay [1] and 9420 nM in assay [2] (setting [3]).

For `CCS(=O)(=O)N[C@H](Cc1ccc(OC)cc1)C(=O)N[C@@H](CCC(N)=O)C(=O)NCc1ccc(C(=N)N)cc1` [Example 73], the 50% inhibitory concentration (IC50) in assay [1] came to 81 nM; in assay [2] (setting [3]) it was 397 nM. In assay [2], the Thrombin selectivity is 5.

In the case of `N=C(N)c1ccc(CNC(=O)[C@H](CCC(N)=O)NC(=O)[C@@H](Cc2c[nH]c3ccccc23)NS(=O)(=O)Cc2cccc(C(=O)O)c2)cc1` [Example 7], the half-inhibitory concentration (IC50) in assay [1] stood at 37 nM; in assay [2] (setting [3]), 17900 nM. Besides, the Thrombin selectivity in assay [2] was 483.

Turning to `CCCOc1ccc2[nH]cc(C[C@@H](NS(=O)(=O)CC)C(=O)N[C@@H](CCC(N)=O)C(=O)NCc3ccc(C(=N)N)cc3)c2c1` [Example 83], the figures for the IC50 in assay [1] and in assay [2] (setting [3]) were 55 nM and 14400 nM, respectively.

As to `N=C(N)c1ccc(CNC(=O)[C@H](CCC(N)=O)NC(=O)[C@H](N)Cc2ccc(-c3ccccc3)cc2)cc1` [Example 66], the IC50 in assay [1] worked out at 2940 nM; in assay [2] (setting [3]), 59100 nM. Also, the Thrombin selectivity in assay [2] is 20.

Turning to `CCS(=O)(=O)N[C@H](Cc1c[nH]c2ccc(OC)cc12)C(=O)N[C@@H](CCC(N)=O)C(=O)NCc1ccc(C(=N)N)cc1` [Example 148], the results for the 50% inhibitory concentration (IC50) in assay [1] and in assay [2] (setting [3]) were 65 nM and 8330 nM, respectively.

In the case of `N=C(N)c1ccc(CNC(=O)[C@H](CCC(N)=O)NC(=O)[C@@H](Cc2c[nH]c3ccccc23)NS(=O)(=O)CC(=O)O)cc1` [Example 146], the IC50 in assay [1] worked out at 153 nM; in assay [2] (setting [3]), 80200 nM. Also, the Thrombin selectivity in assay [2] was found to be 524.

`CCS(=O)(=O)N[C@H](Cc1ccc(C(=O)c2ccccc2)cc1)C(=O)N[C@@H](CCC(N)=O)C(=O)NCc1ccc(C(=N)N)cc1` [Example 81]: the IC50 stood at 177 nM in assay [1] and 5690 nM in assay [2] (setting [3]).

As to `CCS(=O)(=O)N[C@H](Cc1c[nH]c2ccc(OCc3cccc(C(=O)O)c3)cc12)C(=O)N[C@@H](CCC(N)=O)C(=O)NCc1ccc(C(=N)N)cc1` [Example 22, 5-[(3-Carboxybenzyl)oxy]-N-(ethylsulfonyl)-D-tryptophyl-N^1-{4-[amino(imino)methyl]benzyl}-L-glutamide], the IC50 worked out at 39 nM in assay [1] and 17500 nM in assay [2] (setting [3]).

Take `CCS(=O)(=O)N[C@H](Cc1ccc(-c2ccccc2)cc1)C(=O)N[C@@H](CCC(N)=O)C(=O)NCc1ccc(C(=N)N)cc1` [Example 65]: the IC50 in assay [2] (setting [3]) was 9420 nM.

For the compound `CCS(=O)(=O)N[C@H](Cc1c[nH]c2ccccc12)C(=O)N[C@@H](CCC(N)=O)C(=O)NCc1ccc(C(=N)N)cc1` [Example 5, N-(Ethylsulfonyl)-D-tryptophyl-N^1-(4-amidinobenzyl)-L-glutamide], the results for the half-maximal inhibitory concentration (IC50) in assay [1] and in assay [2] (setting [3]) were 62 nM and 5880 nM, respectively. Besides, the Thrombin selectivity in assay [2] came out at 95.

`CCS(=O)(=O)N[C@H](Cc1ccc(-c2ccccc2)cc1)C(=O)N[C@@H](CCSC)C(=O)NCc1ccc(C(=N)N)cc1` [Example 67] gave a half-inhibitory concentration (IC50) in assay [1] of 341 nM. In addition, in assay [2], the half-maximal inhibitory concentration (IC50) came out at 2280 nM and the Thrombin selectivity came out at 1.

With `CCS(=O)(=O)N[C@H](Cc1c[nH]c2ccc(C)cc12)C(=O)N[C@@H](CCC(N)=O)C(=O)NCc1ccc(C(=N)N)cc1` [Example 82], the IC50 was found to be 131 nM in assay [1] and 12500 nM in assay [2] (setting [3]).
